Source: PMC11191095, “QSAR Reveals Decreased Lipophilicity of Polar Residues Determines the Selectivity of Antimicrobial Peptide Activity” (ACS Omega, 2024)
Where a SMILES comes first, the peptide text is derived from it.

Legend:
E. coli LEC001 = assay: microbe, parasite or virus in culture; type: cell-based, Escherichia coli; details: E. coli LEC001 (R); shown in µM
Outline: (§1)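 Peptides 128→2 μg/mL, 2-fold series; inoculum ~5 × 10^5 CFU/mL from overnight culture (OD600 0.01, mixed 1:1). MHB non-cation-adjusted for bacteria, RPMI 1640 + 2% glucose for fungi. 37 °C, 20 h, OD600. MIC50/MIC90 at 50%/90% inhibition; n ≥ 3.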

E. coli NCTC 12923 = assay: microbe, parasite or virus in culture; type: cell-based, Escherichia coli; details: E. coli NCTC 12923 (S); shown in µM
Outline: as §1

P. aeruginosa NCTC 13437 = assay: microbe, parasite or virus in culture; type: cell-based, Pseudomonas aeruginosa; details: P. aeruginosa NCTC 13437 (R); shown in µM
Outline: as §1

P. aeruginosa PAO1 = assay: microbe, parasite or virus in culture; type: cell-based, Pseudomonas aeruginosa; details: P. aeruginosa PAO1 (S)
Outline: as §1

A. baumannii ATCC 17978 = assay: microbe, parasite or virus in culture; type: cell-based, Acinetobacter baumannii; details: A. baumannii ATCC 17978 (S); shown in µM
Outline: as §1

A. baumannii AYE = assay: microbe, parasite or virus in culture; type: cell-based, Acinetobacter baumannii; details: A. baumannii AYE (R); shown in µM
Outline: as §1

K. pneumoniae M6 = assay: microbe, parasite or virus in culture; type: cell-based, Klebsiella pneumoniae; details: K. pneumoniae M6 (S); shown in µM
Outline: as §1

K. pneumoniae NCTC 13368 = assay: microbe, parasite or virus in culture; type: cell-based, Klebsiella pneumoniae; details: K. pneumoniae NCTC 13368 (R); shown in µM
Outline: as §1

S. aureus (MRSA) 1199B = assay: microbe, parasite or virus in culture; type: cell-based, Staphylococcus aureus; details: S. aureus (MRSA) 1199B (R); shown in µM
Outline: as §1

[1] = tested on: S. aureus (MRSA) NCTC 13616; assay: microbe, parasite or virus in culture; type: cell-based, Staphylococcus aureus; details: S. aureus (MRSA) NCTC 13616 (R); shown in µM
Outline: as §1

S. aureus (MRSA) USA300 = assay: microbe, parasite or virus in culture; type: cell-based, Staphylococcus aureus; details: S. aureus (MRSA) USA300 (R); shown in µM
Outline: as §1

[2] = tested on: S. aureus (MSSA) ATCC 9144; assay: microbe, parasite or virus in culture; type: cell-based, Staphylococcus aureus; details: S. aureus (MSSA) ATCC 9144 (S); shown in µM
Outline: as §1

C. auris TDG 1912 = assay: microbe, parasite or virus in culture; type: cell-based, Candida auris; details: C. auris TDG 1912
Outline: as §1

C. albicans NCPF 3281 = assay: microbe, parasite or virus in culture; type: cell-based; details: C. albicans NCPF 3281
Outline: as §1

C. glabrata NCPF 8018 = assay: microbe, parasite or virus in culture; type: cell-based; details: C. glabrata NCPF 8018
Outline: as §1

C. krusei NCPF 3876 = assay: microbe, parasite or virus in culture; type: cell-based; details: C. krusei NCPF 3876; shown in µM
Outline: as §1

[3] = tested on: C. parapsilosis NCPF 3209; assay: microbe, parasite or virus in culture; type: cell-based; details: C. parapsilosis NCPF 3209; shown in µM
Outline: as §1

C. tropicalis NCPF 8760 = assay: microbe, parasite or virus in culture; type: cell-based; details: C. tropicalis NCPF 8760; shown in µM
Outline: as §1

human erythrocytes = assay: In vitro hemolytic activity; type: cell-based; details: human erythrocytes in PBS, 1 h, 37 °C, OD550; from dose response curves
Procedure: Potential erythrocyte hemolysis was tested by incubating serial dilutions of the AMPs in PBS with freshly collected erythrocytes at a ratio of 1:1 in 96-well polypropylene V-shape plates for 1 h at 37 °C. Control wells were treated with 0.1% Triton-X-100 to ensure complete lysis or PBS-only to represent no lysis. The erythrocytes were collected by centrifugation and the OD550 of the supernatant was measured using a plate reader. The percentage hemolysis was calculated as [drawing 1] 1 where Apeptide is the absorbance value of erythrocytes exposed to a known peptide concentration, Agrowth control is the absorbance of erythrocytes exposed to 0.1% Triton-X-100 and Ablank is the absorbance of erythrocytes exposed to the PBS. The concentrations at which a peptide caused 10% (HC10) and 50% (HC50) hemolysis was determined from the dose response curves.

HaCat cell line = assay: In vitro HaCat cytotoxicity (MTT); type: cell-based, human; details: 21 h exposure, OD570, relative to untreated control
Procedure: The HaCat cell line (Cellonex, South Africa) was cultured in Dulbecco’s Modified Eagle Medium (DMEM) supplemented with 10% heat-inactivated fetal calf serum (FCS) and 1% antibiotic-antimycotic (Abs) and maintained at 5–10% CO2, 37 °C, 95% humidity. For cytotoxicity screening, 5.56 × 10^4 cells/mL were plated in a 96-well plate. After 24 h incubation, the cells are initially exposed to each peptide at a concentration of 256 μg/mL or 0.1% Triton-X-100 as the control for 21 h. If cytotoxicity was observed, at a level of significance of p < 0.0001 compared with the untreated control after 21 h, a dose-response assay was undertaken. Cell viability was determined by adding 10% 3-(4,5-dimethyl-2-thiazolyl)-2,5-diphenyl-2H-tetrazolium bromide (MTT) (1 mg/mL), to each well and after a further 3 h incubation the media was discarded, and the formazan crystals dissolved by adding 25% DMSO in ethanol. The absorbance was measured at OD570 by using the FLUOstar Omega multidetection microplate reader (BMG Labtech). Percentage cell viability was calculated relative to the untreated control. The LC50 was defined as the concentration of AMP treatment that results in 50% lethality of HaCat cells and was determined from the dose-response curves.

[4] = MHB, 37 °C, 20 h, OD600, min. three biological repeats
[5] = 50% growth inhibition, RPMI 1640 + 2% glucose, 37 °C, 20 h, OD600
[6] = 90% growth inhibition, RPMI 1640 + 2% glucose, 37 °C, 20 h, OD600
[7] = 50% growth inhibition, RPMI 1640 + 2% glucose, 37 °C, 20 h
[8] = 90% growth inhibition, RPMI 1640 + 2% glucose, 37 °C, 20 h

CC[C@H](C)[C@H](NC(=O)[C@H](CCCCN)NC(=O)[C@H](CCC(=O)O)NC(=O)[C@H](Cc1c[nH]c2ccccc12)NC(=O)[C@H](Cc1ccccc1)NC(=O)[C@H](CCCCN)NC(=O)CNC(=O)[C@H](CC(C)C)NC(=O)[C@H](C)N)C(=O)N[C@@H](CCCCN)C(=O)N[C@@H](CO)C(=O)N[C@@H](CC(C)C)C(=O)N[C@@H](Cc1ccccc1)C(N)=O [A1F5K8-IsCTa] (H-ALGKFWEKIKSLF-NH2)
Modal MIC (E. coli LEC001): 5 µM | Modal MIC (E. coli NCTC 12923): 5 µM | Modal MIC (P. aeruginosa NCTC 13437): 39.9 µM | Modal MIC (P. aeruginosa PAO1; [4]): > 128 µg/mL | Modal MIC (P. aeruginosa PAO1; shown in µM): > 79.9 µM | Modal MIC (A. baumannii ATCC 17978): 2.5 µM | Modal MIC (A. baumannii AYE): 5 µM | Modal MIC (K. pneumoniae M6): 10 µM | Modal MIC (K. pneumoniae NCTC 13368): 10 µM | Modal MIC (S. aureus (MRSA) 1199B): 5 µM | Modal MIC [1]: 10 µM | Modal MIC (S. aureus (MRSA) USA300): 10 µM | Modal MIC [2]: 2.5 µM | Modal MIC50 (C. auris TDG 1912; [5]): > 128 µg/mL | Modal MIC90 (C. auris TDG 1912; [6]): > 128 µg/mL | Modal MIC50 (C. auris TDG 1912; shown in µM): > 79.9 µM | Modal MIC90 (C. auris TDG 1912; shown in µM): > 79.9 µM | Modal MIC50 (C. albicans NCPF 3281; shown in µM): 39.9 µM | Modal MIC90 (C. albicans NCPF 3281; shown in µM): 39.9 µM | Modal MIC50 (C. glabrata NCPF 8018; shown in µM): 39.9 µM | Modal MIC90 (C. glabrata NCPF 8018; shown in µM): 79.9 µM | Modal MIC50 (C. krusei NCPF 3876): 19.9 µM | Modal MIC90 (C. krusei NCPF 3876): 19.9 µM | Modal MIC50 [3]: 39.8 µM | Modal MIC90 [3]: 39.8 µM | Modal MIC50 (C. tropicalis NCPF 8760): 5 µM | Modal MIC90 (C. tropicalis NCPF 8760): 5 µM | HC10 (concentration causing 10% hemolysis) (human erythrocytes): 102 µg/mL | % HaCat cell death at initial screening (256μg/mL) ± SD (HaCat cell line): 83.6 ±9.2%

CC[C@H](C)[C@H](NC(=O)[C@H](C)NC(=O)[C@H](CCCCN)NC(=O)[C@H](CCCNC(=N)N)NC(=O)[C@@H](NC(=O)[C@H](CC(C)C)NC(=O)[C@H](CO)NC(=O)[C@H](Cc1ccccc1)NC(=O)[C@H](CC(C)C)NC(=O)[C@@H](N)Cc1ccccc1)[C@@H](C)CC)C(=O)NCC(=O)NCC(=O)N[C@@H](CC(C)C)C(=O)N[C@H](C(=O)N[C@@H](CO)C(=O)N[C@@H](C)C(=O)N[C@@H](Cc1ccccc1)C(=O)N[C@@H](CCCCN)C(=O)O)[C@@H](C)CC [A3]
HC10 (concentration causing 10% hemolysis) (human erythrocytes): 9 µg/mL | % HaCat cell death at initial screening (256μg/mL) ± SD (HaCat cell line): 100 ± 9.7%

CC[C@H](C)[C@H](NC(=O)[C@H](C)NC(=O)[C@H](CCCCN)NC(=O)[C@@H]1CCCN1C(=O)[C@@H](NC(=O)[C@H](CC(C)C)NC(=O)[C@H](CCCCN)NC(=O)[C@H](Cc1ccccc1)NC(=O)[C@H](CC(C)C)NC(=O)[C@@H](N)Cc1ccccc1)[C@@H](C)CC)C(=O)N[C@@H](CCCCN)C(=O)N[C@@H](CCCCN)C(=O)N[C@@H](CC(C)C)C(=O)N[C@H](C(=O)N[C@@H](CO)C(=O)N[C@@H](CCCCN)C(=O)N[C@@H](Cc1ccccc1)C(=O)N[C@@H](CCCCN)C(=O)O)[C@@H](C)CC [AamAP1-Lys] (H-FLFKLIPKAIKKLISKFK-OH)
HC10 (concentration causing 10% hemolysis) (human erythrocytes): 94 µg/mL | % HaCat cell death at initial screening (256μg/mL) ± SD (HaCat cell line): 99.1 ± 8.7%

CC[C@H](C)[C@H](NC(=O)[C@H](C)NC(=O)[C@H](CCCCN)NC(=O)[C@@H]1CCCN1C(=O)[C@@H](NC(=O)[C@H](CC(C)C)NC(=O)[C@H](CO)NC(=O)[C@H](Cc1ccccc1)NC(=O)[C@H](CC(C)C)NC(=O)[C@@H](N)Cc1ccccc1)[C@@H](C)CC)C(=O)NCC(=O)NCC(=O)N[C@@H](CC(C)C)C(=O)N[C@H](C(=O)N[C@@H](CO)C(=O)N[C@@H](C)C(=O)N[C@@H](Cc1ccccc1)C(=O)N[C@@H](CCCCN)C(=O)O)[C@@H](C)CC [AamAP-S1]
HC10 (concentration causing 10% hemolysis) (human erythrocytes): 128 µg/mL | HC50 (concentration causing 50% hemolysis) (human erythrocytes): 195 µg/mL | % HaCat cell death at initial screening (256μg/mL) ± SD (HaCat cell line): 85 ±17.9%

CC[C@H](C)[C@H](N)C(=O)N[C@@H](CC(C)C)C(=O)NCC(=O)N[C@@H](CCCCN)C(=O)N[C@H](C(=O)N[C@@H](Cc1c[nH]c2ccccc12)C(=O)N[C@@H](CCCCN)C(=O)N1CCC[C@H]1C(=O)N[C@H](C(=O)N[C@@H](CCCCN)C(=O)N[C@@H](CCCCN)C(=O)N[C@@H](CC(C)C)C(=O)N[C@@H](Cc1ccccc1)C(N)=O)[C@@H](C)CC)[C@@H](C)CC [K7P8K11-IsCTa] (H-ILGKIWKPIKKLF-NH2)
Modal MIC (E. coli LEC001): 39.5 µM | Modal MIC (E. coli NCTC 12923): 9.9 µM | Modal MIC (P. aeruginosa NCTC 13437): 39.5 µM | Modal MIC (P. aeruginosa PAO1; [4]): > 128 µg/mL | Modal MIC (P. aeruginosa PAO1; shown in µM): > 79 µM | Modal MIC (A. baumannii ATCC 17978): 4.9 µM | Modal MIC (A. baumannii AYE): 4.9 µM | Modal MIC (K. pneumoniae M6): 19.8 µM | Modal MIC (K. pneumoniae NCTC 13368): 39.5 µM | Modal MIC (S. aureus (MRSA) 1199B): 19.8 µM | Modal MIC [1]: 39.5 µM | Modal MIC (S. aureus (MRSA) USA300): 39.5 µM | Modal MIC [2]: 4.9 µM | Modal MIC50 (C. auris TDG 1912; [5]): > 128 µg/mL | Modal MIC90 (C. auris TDG 1912; [6]): > 128 µg/mL | Modal MIC50 (C. auris TDG 1912; shown in µM): > 79 µM | Modal MIC90 (C. auris TDG 1912; shown in µM): > 79 µM | Modal MIC50 (C. albicans NCPF 3281; [7]): > 128 µg/mL | Modal MIC90 (C. albicans NCPF 3281; [8]): > 128 µg/mL | Modal MIC50 (C. albicans NCPF 3281; shown in µM): > 79 µM | Modal MIC90 (C. albicans NCPF 3281; shown in µM): > 79 µM | Modal MIC50 (C. glabrata NCPF 8018; [7]): > 128 µg/mL | Modal MIC90 (C. glabrata NCPF 8018; [8]): > 128 µg/mL | Modal MIC50 (C. glabrata NCPF 8018; shown in µM): > 79 µM | Modal MIC90 (C. glabrata NCPF 8018; shown in µM): > 79 µM | Modal MIC50 (C. krusei NCPF 3876): 19.8 µM | Modal MIC90 (C. krusei NCPF 3876): 39.5 µM | Modal MIC50 [3]: 39.5 µM | Modal MIC90 [3]: 79 µM | Modal MIC50 (C. tropicalis NCPF 8760): 4.9 µM | Modal MIC90 (C. tropicalis NCPF 8760): 9.9 µM | % HaCat cell death at initial screening (256μg/mL) ± SD (HaCat cell line): 89.2 ± 9.1%
